Legend:
[1] = system: subjects suffering from sudden sensorineural hearing loss (SSNHL); assay: Phase 2b/3 study: speech discrimination test, change in word recognition score (WRS) from baseline; type: in vivo, human; conditions: SENS-401 29 mg/BID
Protocol: (§1) A randomized, double-blind, placebo-controlled, parallel-group phase 2b/3 study was conducted with the aim to assess efficacy and safety of (R)-azasetron in subjects suffering from sudden sensorineural hearing loss. Treatment was administered for 4 weeks (i.e., 28 days) and the study was concluded with an 8-week follow-up at day 84.
(§2) Subjects were included in the study if they presented with sudden sensorineural hearing loss (SSNHL) and met the following criteria: • male or female, • aged at least 18 years old, • subjects with unilateral idiopathic SSNHL or unilateral/bilateral acute acoustic trauma leading to SSNHL defined by both: • at least one hearing threshold of 50 dB or more amongst the 3 most affected contiguous frequencies on pure tone audiometric air conduction testing performed 24 hours or less prior to first study drug intake, and • mean hearing loss of 30 dB or more, averaged across the 3 most affected contiguous frequencies on pure tone audiometric air conduction testing performed 24 hours or less prior to first study treatment, compared with the unaffected contralateral ear or reference values from a pre-existing audiogram (dated less than 2 years) • subjects with sudden hearing loss with onset within 96 hours prior to first study drug intake.
134 subjects were assessed for eligibility according to the criteria listed above. 115 subjects were randomized with a ratio 1:1:1 in the three following groups (i.e., treatment arms): • 38 subjects were included in the group administered for 28 days (i.e., 4 weeks) with placebo, • 38 subjects were included in the group administered for 28 days (i.e., 4 weeks) with a “low” dose of (R)-azasetron, defined as a total daily dose of 58 mg of (R)-azasetron (corresponding to a daily dose of 40 mg free base equivalent); and • 39 subjects were included in the group administered for 28 days (i.e., 4 weeks) with a “high” dose of (R)-azasetron, defined as a total daily dose of 87 mg of (R)-azasetron (corresponding to a daily dose of 60 mg free base equivalent).
Subjects were administered placebo or (R)-azasetron (also designated as SENS-401) for 28 days (i.e., 4 weeks). (R)-azasetron was administered orally twice a day either at a dose of 29 mg/BID (bis in die) or at a dose of 43.5 mg/BID (corresponding to a total daily dose of 40 mg and 60 mg free base equivalent, respectively).
Subjects included in the study were monitored with a first visit at day −4 to day 0 (screening), followed by a visit at day 1 (D1-randomization and inclusion day), day 7 (D7, ±2 days), day 14 (D14, ±2 days), day 28 (D28±3 days−end of treatment), and day 84 (D84±3 days-follow-up visit marking the end of study). Monitoring included audiometric tests (PTA), speech audiometry, numerical rating scales and questionnaires. Additionally, subjects included in the study were closely monitored for adverse events throughout the study.
Additionally, the efficacy of SENS-401 was also assessed by conducting speech audiometry, in particular by conducting a speech discrimination test (also known as word recognition test) to determine a word recognition score (WRS).
Speech discrimination or word recognition is the ability to repeat correctly an open set of monosyllabic words at supra threshold intensity (for example at 60 dB or at 80 dB). The word recognition score (WRS) is thus the percentage of test words correctly repeated by the subject. The test is administered in a quiet room without any competing noise. […]

[2] = system: subjects suffering from sudden sensorineural hearing loss (SSNHL); assay: Phase 2b/3 study: change in pure tone audiometry (PTA) from baseline in affected ear; type: in vivo, human
Protocol: as §1, §2
As indicated above, hearing loss was determined with pure tone audiometry (PTA) or pure tone audiometric testing, in particular with pure tone audiometric air conduction testing.
In the present study, pure tone air- and bone-conduction hearing thresholds were determined for each ear (best ear at first) at 0.25, 0.5, 1, 2, 3, 4, 6, and 8 kHz for air conduction and at 0.5, 1, 2, 3, 4 kHz for bone conduction, using the descending method of limits (modified Hughson Westlake procedure as follows: initial descent towards threshold is accomplished in 10-dB steps. Beginning with the first nonresponse, level is increased by 5-dB for each non-response and decreased by 10-dB after each correct detection response). The hearing threshold was defined as the lowest audible level, measured twice out of three presentations to the subject.
The baseline pure tone audiometry test was defined as the last test performed at site within 24 hours prior to the first study drug administration. The PTA was expressed as the average of the hearing threshold (in dB) of the 3 most affected contiguous test frequencies (air conduction). Therefore, a higher PTA corresponds to a higher hearing threshold and thus to a poorer hearing. Conversely, a lower PTA corresponds to a lower hearing threshold and thus to a better hearing.
The hearing loss was defined as the difference between the PTA expressed as the average of the hearing threshold (in dB) at the 3 most affected contiguous test frequencies (air pure tone average) and the corresponding PTA expressed as the average hearing threshold of the contralateral ear or values from a pre-existing audiogram (dated less than 2 years) for the same frequencies (mandatory for bilateral acute acoustic trauma). The contiguous frequencies used to determine the PTA at baseline remained fixed for all subsequent evaluations. In case of bilateral acute acoustic trauma leading to sudden sensorineural hearing loss, the most affected ear according to the inclusion criteria was considered for the analysis. If both ears were equally affected, the right ear was considered.
134 subjects were assessed for eligibility according to the criteria listed above. […]

[3] = day 28, SENS-401 high 43.5 mg/BID, subpopulation PTA at baseline ≥80 dB (idiopathic SSNHL, corticoids)
[4] = day 28, SENS-401 high 43.5 mg/BID, subpopulation PTA at baseline ≥90 dB (idiopathic SSNHL, corticoids)
[5] = day 28, SENS-401 low 29 mg/BID (40 mg/day free base equivalent), ITT overall study population, idiopathic SSNHL who received corticoids
[6] = day 28, SENS-401 low 29 mg/BID, subpopulation PTA at baseline ≥80 dB & initial frequency range ≤2000 Hz (idiopathic SSNHL, corticoids)
[7] = day 84, SENS-401 high 43.5 mg/BID (60 mg/day free base equivalent), overall study population, idiopathic SSNHL who received corticoids
[8] = day 84, SENS-401 high 43.5 mg/BID, subpopulation PTA at baseline ≥80 dB (idiopathic SSNHL, corticoids)
[9] = day 84, SENS-401 high 43.5 mg/BID, subpopulation PTA at baseline ≥90 dB (idiopathic SSNHL, corticoids)
[10] = day 84, SENS-401 high 43.5 mg/BID, subpopulation initial hearing loss ≥91 dB (ASHA Profound; idiopathic SSNHL, corticoids)
[11] = day 84, SENS-401 low 29 mg/BID (40 mg/day free base equivalent), ITT overall study population
[12] = day 84, SENS-401 low 29 mg/BID (40 mg/day free base equivalent), ITT overall study population, idiopathic SSNHL who received corticoids
[13] = day 84, SENS-401 low 29 mg/BID, subpopulation PTA at baseline ≥80 dB & initial frequency range ≤2000 Hz (idiopathic SSNHL, corticoids)
[14] = day 84, SENS-401 low 29 mg/BID, subpopulation initial frequency range ≤2000 Hz (of overall study population)
[15] = day 84, SENS-401 low 29 mg/BID, subpopulation initial hearing loss ≥91 dB (ASHA Profound; idiopathic SSNHL, corticoids)
[16] = day 84, SENS-401 low 29 mg/BID, subpopulation vertigo at baseline (idiopathic SSNHL, corticoids)

## CN1C(=O)COc2c(C(=O)N[C@H]3CN4CCC3CC4)cc(Cl)cc21 [SENS-401, (R)-azasetron besylate]
[1]; day 28, subpopulation PTA at baseline ≥70 dB (of overall study population)
  ΔWRS SENS-401 vs placebo: 12.9673%
[1]; day 28, WRS assessed at 60 dB, subpopulation vertigo at baseline
  ΔWRS SENS-401 vs placebo: 35.5287%
[1]; day 28, WRS at 60 dB, overall study population
  ΔWRS SENS-401 vs placebo: 8.8241%
[1]; day 84, WRS assessed at 60 dB, subpopulation vertigo at baseline
  ΔWRS SENS-401 vs placebo: 53.1273%
[1]; day 84, WRS at 80 dB, subpopulation vertigo at baseline
  change in WRS from baseline (effect vs placebo, in words): significant beneficial effect
[2]; day 28, SENS-401 29 mg/BID (40 mg/day free base equivalent), subpopulation PTA at baseline ≥80 dB (idiopathic SSNHL, corticoids), in dB
  ΔPTA SENS-401 vs placebo: −15.2188
[2]; day 28, SENS-401 29 mg/BID (40 mg/day free base equivalent), subpopulation PTA at baseline ≥90 dB (idiopathic SSNHL, corticoids), in dB
  ΔPTA SENS-401 vs placebo: −13.9239
[2]; day 28, SENS-401 29 mg/BID, subpopulation hearing loss at baseline ≥91 dB (idiopathic SSNHL, corticoids)
  ΔPTA SENS-401 vs placebo: −19.8922 dB
[2]; day 28, SENS-401 29 mg/BID, subpopulation vertigo at baseline (idiopathic SSNHL, corticoids), in dB
  ΔPTA SENS-401 vs placebo: −14.0995
[2]; day 28, SENS-401 43.5 mg/BID, subpopulation hearing loss at baseline ≥91 dB (idiopathic SSNHL, corticoids), in dB
  ΔPTA SENS-401 vs placebo: −14.8893
[2]; day 28, SENS-401 high 43.5 mg/BID oral (60 mg/day free base equivalent) 28 days, ITT overall study population, idiopathic SSNHL who received corticoids
  Mean change in PTA from baseline: −41.8636 dB
[2]; [3]
  Mean change in PTA from baseline: −54.4635 dB
  ΔPTA SENS-401 vs placebo: −17.7765 dB
[2]; [4]
  Mean change in PTA from baseline: −53.6800 dB
  ΔPTA SENS-401 vs placebo: −23.2680 dB
[2]; [5]
  Mean change in PTA from baseline: −42.0761 dB
  ΔPTA SENS-401 vs placebo: −4.1236 dB
[2]; [6]
  Mean change in PTA from baseline: −59.0918 dB
  ΔPTA SENS-401 vs placebo: −21.7623 dB
[2]; day 84, SENS-401 29 mg/BID (40 mg/day free base equivalent), subpopulation PTA at baseline ≥80 dB (idiopathic SSNHL, corticoids), in dB
  ΔPTA SENS-401 vs placebo: −19.4991
[2]; day 84, SENS-401 29 mg/BID (40 mg/day free base equivalent), subpopulation PTA at baseline ≥90 dB (idiopathic SSNHL, corticoids), in dB
  ΔPTA SENS-401 vs placebo: −19.0242
[2]; [7]
  Mean change in PTA from baseline: −46.3161 dB
  ΔPTA SENS-401 vs placebo: −9.0984 dB
[2]; [8]
  Mean change in PTA from baseline: −61.2123 dB
  ΔPTA SENS-401 vs placebo: −25.6472 dB
[2]; [9]
  Mean change in PTA from baseline: −57.7398 dB
  ΔPTA SENS-401 vs placebo: −28.6788 dB
[2]; [10]
  Mean change in PTA from baseline: −44.9102 dB
  ΔPTA SENS-401 vs placebo: −26.2796 dB
[2]; [11]
  Mean change in PTA from baseline: −32.4686 dB
  ΔPTA SENS-401 vs placebo: −7.0694 dB
[2]; [12]
  Mean change in PTA from baseline: −45.9263 dB
  ΔPTA SENS-401 vs placebo: −8.7086 dB
[2]; [13]
  Mean change in PTA from baseline: −61.7417 dB
  ΔPTA SENS-401 vs placebo: −26.6903 dB
[2]; [14]
  Mean change in PTA from baseline: −44.6900 dB
  ΔPTA SENS-401 vs placebo: −11.6405 dB
[2]; [15]
  Mean change in PTA from baseline: −46.6683 dB
  ΔPTA SENS-401 vs placebo: −28.0377 dB
[2]; [16]
  Mean change in PTA from baseline: −44.8233 dB
  ΔPTA SENS-401 vs placebo: −21.8040 dB

From patent publication US20250170139A1, “AZASETRON FOR THE TREATMENT OF SUDDEN SENSORINEURAL HEARING LOSS” (SENSORION, priority 2022, published 2025)
